{"source": "paper PMC6325233", "about": "“A Novel Actin Binding Drug with In Vivo Efficacy” (Antimicrobial Agents and Chemotherapy, 2018)", "test_in_all_cases": "MIC susceptibility testing", "type_in_all_cases": "cell-based", "parameters_in_all_cases": "key to MIC, 50% inhibition: -: indicates absence of isolates with 50% inhibition endpoint", "key": {"Fusarium solani 28386": {"tested_on": "Fusarium solani 28386", "conditions": "CLSI M38-A2", "protocol": "(§1) Occidiofungin was purified from a liquid culture of Burkholderia contaminans MS14 as previously described ([21]). MIC susceptibility testing was performed according to the CLSI M27-A3 and M38-A2 standards for the susceptibility testing of yeasts and filamentous fungi, respectively. S. cerevisiae deletion mutants were obtained from the commercially available BY4741 deletion library (Thermo Scientific)."}, "[1]": {"tested_on": "Aspergillus fumigatus 28435", "conditions": "CLSI M38-A2", "protocol": "as §1"}, "Aspergillus flavus 28445": {"tested_on": "Aspergillus flavus 28445", "conditions": "CLSI M38-A2", "protocol": "as §1"}, "Candida glabrata 25742": {"tested_on": "Candida glabrata 25742", "conditions": "CLSI M27-A3", "protocol": "as §1"}, "Mucor racemosus 27784": {"tested_on": "Mucor racemosus 27784", "conditions": "CLSI M38-A2", "protocol": "as §1"}, "Candida tropicalis 9624": {"tested_on": "Candida tropicalis 9624", "conditions": "CLSI M27-A3", "protocol": "as §1"}, "Candida albicans 28102": {"tested_on": "Candida albicans 28102", "conditions": "CLSI M27-A3", "protocol": "as §1"}, "[2]": {"tested_on": "Aspergillus fumigatus 28434", "conditions": "CLSI M38-A2", "protocol": "as §1"}, "Mucor fragilis 27782": {"tested_on": "Mucor fragilis 27782", "conditions": "CLSI M38-A2", "protocol": "as §1"}, "[3]": {"tested_on": "Rhizopus microsporus 28506", "conditions": "CLSI M38-A2", "protocol": "as §1"}, "[4]": {"tested_on": "Rhizopus microsporus 27785", "conditions": "CLSI M38-A2", "protocol": "as §1"}, "Aspergillus flavus 28455": {"tested_on": "Aspergillus flavus 28455", "conditions": "CLSI M38-A2", "protocol": "as §1"}}, "data": [{"substance": "occidiofungin", "values": [{"measurement": "MIC, 50% inhibition", "setting": "Fusarium solani 28386; 24 hours", "result": 2, "unit": "µg/mL"}, {"measurement": "MIC, 100% inhibition", "setting": "Fusarium solani 28386; 24 hours", "result": 4, "unit": "µg/mL"}, {"measurement": "MIC, 50% inhibition", "setting": "Fusarium solani 28386; 48 hours", "result": "-"}, {"measurement": "MIC, 100% inhibition", "setting": "Fusarium solani 28386; 48 hours", "result": 4, "unit": "µg/mL"}, {"measurement": "MIC, 50% inhibition", "setting": "[1]; 24 hours", "result": "-"}, {"measurement": "MIC, 100% inhibition", "setting": "[1]; 24 hours", "result": 2, "unit": "µg/mL"}, {"measurement": "MIC, 50% inhibition", "setting": "[1]; 48 hours", "result": "-"}, {"measurement": "MIC, 100% inhibition", "setting": "[1]; 48 hours", "result": 2, "unit": "µg/mL"}, {"measurement": "MIC, 50% inhibition", "setting": "Aspergillus flavus 28445; 24 hours", "result": 2, "unit": "µg/mL"}, {"measurement": "MIC, 100% inhibition", "setting": "Aspergillus flavus 28445; 24 hours", "result": 4, "unit": "µg/mL"}, {"measurement": "MIC, 50% inhibition", "setting": "Aspergillus flavus 28445; 48 hours", "result": "-"}, {"measurement": "MIC, 100% inhibition", "setting": "Aspergillus flavus 28445; 48 hours", "result": 4, "unit": "µg/mL"}, {"measurement": "MIC, 50% inhibition", "setting": "Candida glabrata 25742; 24 hours", "result": "-"}, {"measurement": "MIC, 100% inhibition", "setting": "Candida glabrata 25742; 24 hours", "result": 2, "unit": "µg/mL"}, {"measurement": "MIC, 50% inhibition", "setting": "Candida glabrata 25742; 48 hours", "result": "-"}, {"measurement": "MIC, 100% inhibition", "setting": "Candida glabrata 25742; 48 hours", "result": 2, "unit": "µg/mL"}, {"measurement": "MIC, 50% inhibition", "setting": "Mucor racemosus 27784; 24 hours", "result": 2, "unit": "µg/mL"}, {"measurement": "MIC, 100% inhibition", "setting": "Mucor racemosus 27784; 24 hours", "result": 4, "unit": "µg/mL"}, {"measurement": "MIC, 50% inhibition", "setting": "Mucor racemosus 27784; 48 hours", "result": "-"}, {"measurement": "MIC, 100% inhibition", "setting": "Mucor racemosus 27784; 48 hours", "result": 4, "unit": "µg/mL"}, {"measurement": "MIC, 50% inhibition", "setting": "Candida tropicalis 9624; 24 hours", "result": "-"}, {"measurement": "MIC, 100% inhibition", "setting": "Candida tropicalis 9624; 24 hours", "result": 2, "unit": "µg/mL"}, {"measurement": "MIC, 50% inhibition", "setting": "Candida tropicalis 9624; 48 hours", "result": "-"}, {"measurement": "MIC, 100% inhibition", "setting": "Candida tropicalis 9624; 48 hours", "result": 2, "unit": "µg/mL"}, {"measurement": "MIC, 50% inhibition", "setting": "Candida albicans 28102; 24 hours", "result": "-"}, {"measurement": "MIC, 100% inhibition", "setting": "Candida albicans 28102; 24 hours", "result": 2, "unit": "µg/mL"}, {"measurement": "MIC, 50% inhibition", "setting": "Candida albicans 28102; 48 hours", "result": "-"}, {"measurement": "MIC, 100% inhibition", "setting": "Candida albicans 28102; 48 hours", "result": 2, "unit": "µg/mL"}, {"measurement": "MIC, 50% inhibition", "setting": "[2]; 24 hours", "result": "-"}, {"measurement": "MIC, 100% inhibition", "setting": "[2]; 24 hours", "result": 4, "unit": "µg/mL"}, {"measurement": "MIC, 50% inhibition", "setting": "[2]; 48 hours", "result": "-"}, {"measurement": "MIC, 100% inhibition", "setting": "[2]; 48 hours", "result": 4, "unit": "µg/mL"}, {"measurement": "MIC, 50% inhibition", "setting": "Mucor fragilis 27782; 24 hours", "result": 2, "unit": "µg/mL"}, {"measurement": "MIC, 100% inhibition", "setting": "Mucor fragilis 27782; 24 hours", "result": 4, "unit": "µg/mL"}, {"measurement": "MIC, 50% inhibition", "setting": "Mucor fragilis 27782; 48 hours", "result": "-"}, {"measurement": "MIC, 100% inhibition", "setting": "Mucor fragilis 27782; 48 hours", "result": 4, "unit": "µg/mL"}, {"measurement": "MIC, 50% inhibition", "setting": "[3]; 24 hours", "result": 4, "unit": "µg/mL"}, {"measurement": "MIC, 100% inhibition", "setting": "[3]; 24 hours", "result": 8, "unit": "µg/mL"}, {"measurement": "MIC, 50% inhibition", "setting": "[3]; 48 hours", "result": "-"}, {"measurement": "MIC, 100% inhibition", "setting": "[3]; 48 hours", "result": 8, "unit": "µg/mL"}, {"measurement": "MIC, 50% inhibition", "setting": "[4]; 24 hours", "result": 2, "unit": "µg/mL"}, {"measurement": "MIC, 100% inhibition", "setting": "[4]; 24 hours", "result": 4, "unit": "µg/mL"}, {"measurement": "MIC, 50% inhibition", "setting": "[4]; 48 hours", "result": "-"}, {"measurement": "MIC, 100% inhibition", "setting": "[4]; 48 hours", "result": 8, "unit": "µg/mL"}, {"measurement": "MIC, 50% inhibition", "setting": "Aspergillus flavus 28455; 24 hours", "result": 2, "unit": "µg/mL"}, {"measurement": "MIC, 100% inhibition", "setting": "Aspergillus flavus 28455; 24 hours", "result": 4, "unit": "µg/mL"}, {"measurement": "MIC, 50% inhibition", "setting": "Aspergillus flavus 28455; 48 hours", "result": "-"}, {"measurement": "MIC, 100% inhibition", "setting": "Aspergillus flavus 28455; 48 hours", "result": 4, "unit": "µg/mL"}]}]}
